Measured values as given in patent publication US11434242B2, “Dopamine-b-hydroxylase inhibitors” (BIAL-PORTELA & Cª, S.A., priority 2017, dated 2022).

Target: T1, Dopamine beta hydroxylase (Homo sapiens, UniProt P09172)
T1 construct: 125 μl of plasma; tissue Instituto Português do Sangue Transplantação; host or cells: human plasma from healthy donors
T1 sequence (P09172 40-617 limits assumed): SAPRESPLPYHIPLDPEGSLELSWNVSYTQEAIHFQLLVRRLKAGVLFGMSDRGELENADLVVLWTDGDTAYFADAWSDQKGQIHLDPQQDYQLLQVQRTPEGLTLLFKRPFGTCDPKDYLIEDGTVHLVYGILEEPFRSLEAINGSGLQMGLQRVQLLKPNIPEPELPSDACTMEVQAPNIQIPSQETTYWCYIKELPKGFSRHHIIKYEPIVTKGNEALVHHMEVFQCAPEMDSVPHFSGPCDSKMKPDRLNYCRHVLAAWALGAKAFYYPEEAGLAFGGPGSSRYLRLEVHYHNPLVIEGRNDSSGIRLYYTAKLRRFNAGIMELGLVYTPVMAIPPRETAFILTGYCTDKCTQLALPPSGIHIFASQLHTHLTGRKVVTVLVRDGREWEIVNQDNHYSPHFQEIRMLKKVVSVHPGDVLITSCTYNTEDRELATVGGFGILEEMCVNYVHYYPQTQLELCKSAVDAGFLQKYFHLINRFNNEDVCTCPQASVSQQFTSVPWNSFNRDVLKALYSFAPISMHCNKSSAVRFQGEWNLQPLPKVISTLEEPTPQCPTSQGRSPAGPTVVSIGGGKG
Assay: Dopamine beta hydroxylase activity in human plasma
Assay type: biochemical
Conditions: for Plasma (0.1 μM), activity in % of control: inhibitor 0.1 μM; for Plasma (1 μM), activity in % of control: inhibitor 1 μM; for Plasma (0.01 μM), activity in % of control: inhibitor 0.01 μM
Method in brief: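 Octopamine production from tyramine over 45 min at 37° C, measured photometrically at 330 nm after SCX extraction and periodate oxidation against an octopamine standard curve, indicates plasma DβH activity. Compounds tested at final 10, 100 and 1000 nM in human plasma, pH 5.0 cofactor buffer, 10 min preincubation; results as % of control.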

SMILES | Plasma (0.1 μM), activity in % of control | Plasma (1 μM), activity in % of control | Plasma (0.01 μM), activity in % of control
Cn1c(CC(=O)N[C@H]2CCOC2)c2n(c1=S)C[C@H](c1cc(F)cc(F)c1)C2 [Example 426, 2-((S)-6-(3,5-difluorophenyl)-2-methyl-3-thioxo-2,5,6,7-tetrahydro-3H-pyrrolo[1,2-c]imidazol-1-yl)-N—((S)-tetrahydrofuran-3-yl)acetamide] | 66.3 % of control |  | 83.5 % of control
Cn1c(CC(=O)N2CCOCC2)c2n(c1=S)C[C@H](c1cc(F)cc(F)c1)C2 [Example 419, (S)-2-(6-(3,5-difluorophenyl)-2-methyl-3-thioxo-2,5,6,7-tetrahydro-3H-pyrrolo[1,2-c]imidazol-1-yl)-1-morpholinoethan-1-one] | 61.0 % of control |  | 92.5 % of control
Cl.Cn1c(CCNCC(F)(F)F)c2n(c1=S)C[C@@]1(c3cc(Br)ccc3F)C[C@@H]21 [Example 334, (5aS,6aR)-5a-(5-bromo-2-fluorophenyl)-2-methyl-1-(2-((2,2,2-trifluoroethyl)amino)ethyl)-5,5a,6,6a-tetrahydrocyclopropa[3,4]pyrrolo[1,2-c]imidazole-3(2H)-thione Hydrochloride] | 41.9 % of control |  | 80.3 % of control
F.Fc1ccc(Cl)cc1[C@]12C[C@H]1c1c(CCN3CCCCC3)[nH]c(=S)n1C2 [Example 194, (5aS,6aR)-5a-(5-chloro-2-fluorophenyl)-1-(2-(piperidin-1-yl)ethyl)-5,5a,6,6a-tetrahydrocyclopropa[3,4]pyrrolo[1,2-c]imidazole-3(2H)-thione Hydrofluoride] | 62.4 % of control |  | 82.9 % of control
O=C(O)Cc1[nH]c(=S)n2c1C[C@@H](c1cc(Br)ccc1F)C2 [Example 16, (S)-2-(6-(5-bromo-2-fluorophenyl)-3-thioxo-2,5,6,7-tetrahydro-3H-pyrrolo[1,2-c]imidazol-1-yl)acetic Acid] | 72.9 % of control | 12.7 % of control | 
Cn1c(CC(N)=O)c2n(c1=S)C[C@@]1(c3cc(Br)ccc3F)C[C@@H]21 [Example 280, 2-((5aS,6aR)-5a-(5-bromo-2-fluorophenyl)-2-methyl-3-thioxo-2,3,5,5a,6,6a-hexahydrocyclopropa[3,4]pyrrolo[1,2-c]imidazol-1-yl)acetamide] | 51.4 % of control |  | 92.8 % of control
Cn1c(CC(=O)N[C@@H]2CCCOC2)c2n(c1=S)C[C@@]1(c3c(F)ccc(Cl)c3F)C[C@@H]21 [Example 415, 2-((5aS,6aR)-5a-(3-chloro-2,6-difluorophenyl)-2-methyl-3-thioxo-2,3,5,5a,6,6a-hexahydrocyclopropa[3,4]pyrrolo[1,2-c]imidazol-1-yl)-N—((R)-tetrahydro-2H-pyran-3-yl)acetamide] | 2.1 % of control |  | 14.9 % of control
Cn1c(CC(=O)Nc2ccccn2)c2n(c1=S)C[C@H](c1c(F)ccc(Cl)c1F)C2 [Example 258, (S)-2-(6-(3-chloro-2,6-difluorophenyl)-2-methyl-3-thioxo-3,5,6,7-tetrahydro-2H-pyrrolo[1,2-c]imidazol-1-yl)-N-(pyridin-2-yl)acetamide] | 21.3 % of control |  | 84.2 % of control
F.Fc1ccc(Cl)cc1[C@]12C[C@H]1c1c(CCNCc3ccccc3)[nH]c(=S)n1C2 [Example 189, (5aS,6aR)-1-(2-(benzylamino)ethyl)-5a-(5-chloro-2-fluorophenyl)-5,5a,6,6a-tetrahydrocyclopropa[3,4]pyrrolo[1,2-c]imidazole-3(2H)-thione hydrofluoride] | 23.2 % of control |  | 87.4 % of control
CC(C)NC(=O)Cc1c2n(c(=S)n1C)C[C@H](c1c(F)ccc(Cl)c1F)C2 [Example 236, (S)-2-(6-(3-chloro-2,6-difluorophenyl)-2-methyl-3-thioxo-2,5,6,7-tetrahydro-3H-pyrrolo[1,2-c]imidazol-1-yl)-N-isopropylacetamide] | 51.0 % of control |  | 104.2 % of control
CC(C)NC(=O)Cc1c2n(c(=S)n1C)C[C@@]1(c3cc(Cl)ccc3F)C[C@@H]21 [Example 303, 2-((5aS,6aR)-5a-(5-chloro-2-fluorophenyl)-2-methyl-3-thioxo-2,3,5,5a,6,6a-hexahydrocyclopropa[3,4]pyrrolo[1,2-c]imidazol-1-yl)-N-isopropylacetamide] | 34.7 % of control |  | 79.3 % of control

Results, then the compound that gave them:

Plasma (0.1 μM), activity in % of control | Plasma (1 μM), activity in % of control | Plasma (0.01 μM), activity in % of control | SMILES
92.8 % of control | 45.6 % of control |  | O=C(O)Cc1[nH]c(=S)n2c1C[C@H](c1cc(F)ccc1F)C2 [Example 14, (R)-2-(6-(2,5-difluorophenyl)-3-thioxo-2,5,6,7-tetrahydro-3H-pyrrolo[1,2-c]imidazol-1-yl)acetic Acid]
30.2 % of control |  | 76.6 % of control | O=C(CCc1[nH]c(=S)n2c1C[C@H](c1c(F)c(F)cc(F)c1F)C2)N1CCCCC1 [Example 207, (R)-1-(piperidin-1-yl)-3-(6-(2,3,5,6-tetrafluorophenyl)-3-thioxo-2,5,6,7-tetrahydro-3H-pyrrolo[1,2-c]imidazol-1-yl)propan-1-one]
46.2 % of control | 9.7 % of control |  | O=C(Cc1[nH]c(=S)n2c1C[C@H](c1c(F)c(F)cc(F)c1F)C2)NC1CCCC1 [Example 32]
17.7 % of control |  | 76.5 % of control | O=C(NCc1[nH]c(=S)n2c1C[C@@H](c1c(F)ccc(Cl)c1F)C2)C1CC1 [Example 220, (S)—N-((6-(3-chloro-2,6-difluorophenyl)-3-thioxo-3,5,6,7-tetrahydro-2H-pyrrolo[1,2-c]imidazol-1-yl)methyl)cyclopropanecarboxamide]
35.4 % of control |  | 78.7 % of control | Cn1c(CC(=O)NC2CCOCC2)c2n(c1=S)C[C@@H](c1c(F)c(F)cc(F)c1F)C2 [Example 297, (R)-2-(2-methyl-6-(2,3,5,6-tetrafluorophenyl)-3-thioxo-2,5,6,7-tetrahydro-3H-pyrrolo[1,2-c]imidazol-1-yl)-N-(tetrahydro-2H-pyran-4-yl)acetamide]
20.8 % of control | 4.1 % of control |  | CCOC(=O)Cc1[nH]c(=S)n2c1C[C@@H](c1c(F)ccc(Br)c1F)C2 [Example 59, ethyl (S)-2-(6-(3-bromo-2,6-difluorophenyl)-3-thioxo-2,5,6,7-tetrahydro-3H-pyrrolo[1,2-c]imidazol-1-yl)acetate]
53.8 % of control |  | 88.1 % of control | Cn1c(CCC(=O)NCC#N)c2n(c1=S)C[C@@H](c1c(F)ccc(F)c1F)C2 [Example 270, (R)—N-(cyanomethyl)-3-(2-methyl-3-thioxo-6-(2,3,6-trifluorophenyl)-2,5,6,7-tetrahydro-3H-pyrrolo[1,2-c]imidazol-1-yl)propanamide]
50.1 % of control |  | 108.7 % of control | CN(C(=O)Cc1[nH]c(=S)n2c1C[C@H](c1c(F)ccc(F)c1F)C2)C1CCOCC1 [Example 379, (R)—N-methyl-2-(6-(2,3,6-trifluorophenyl)-3-thioxo-2,5,6,7-tetrahydro-3H-pyrrolo[1,2-c]imidazol-1-yl)-N-(tetrahydro-2H-pyran-4-yl)acetamide]
24.1 % of control |  | 79.9 % of control | Cn1c(CC(=O)NCC2CCOCC2)c2n(c1=S)C[C@@H](c1c(F)c(F)cc(F)c1F)C2 [Example 397, (R)-2-(2-methyl-6-(2,3,5,6-tetrafluorophenyl)-3-thioxo-2,5,6,7-tetrahydro-3H-pyrrolo[1,2-c]imidazol-1-yl)-N-((tetrahydro-2H-pyran-4-yl)methyl)acetamide]
12.2 % of control |  | 43.4 % of control | Cn1c(C2(C(=O)N[C@@H]3CCOC3)CC2)c2n(c1=S)C[C@H](c1c(F)ccc(Br)c1F)C2 [Example 234, 1-((S)-6-(3-bromo-2,6-difluorophenyl)-2-methyl-3-thioxo-2,5,6,7-tetrahydro-3H-pyrrolo[1,2-c]imidazol-1-yl)-N—((R)-tetrahydrofuran-3-yl)cyclopropane-1-carboxamide]
11.1 % of control |  | 62.3 % of control | O=C(Cc1[nH]c(=S)n2c1C[C@@H](c1c(F)ccc(Br)c1F)C2)NC1CCOCC1 [Example 410, (S)-2-(6-(3-bromo-2,6-difluorophenyl)-3-thioxo-2,5,6,7-tetrahydro-3H-pyrrolo[1,2-c]imidazol-1-yl)-N-(tetrahydro-2H-pyran-4-yl)acetamide]
